Measurements published in patent US20120302573A1, “METHODS OF INHIBITING PRO MATRIX METALLOPROTEINASE ACTIVATION” (priority 2011, published 2012).

Experiments:
[1] = target: T1, proMMP9 (Homo sapiens, UniProt P14780); assay: Activation of proMMP9 by human fetal lung fibroblast (HFL-1) cultures (Western blot); type: cell-based; details: 3.3 μM, 72 hrs, mAb-L51/82
T1 construct: host or cells: HFL-1
Description: Compound α was assessed additionally for ability to block the maturation of proMMP9 to active MMP9 in cultures of human fetal lung fibroblasts (HFL-1, American Type Culture Collection #CCL-153). Unlike rat synoviocytes, HFL-1 cells were unable to process proMMP9 to the active form without addition of neutrophil elastase. […] Rather, the function of elastase in this assay may be to inactivate tissue inhibitors of matrix metalloproteinases (TIMPs) that repress endogenous pathways of MMP9 activation (Am J Respir Crit Care Med; 1999; 159:1138-46).
HLF-1 were maintained in monolayer culture in DMEM with 10% FCS and were used between passage numbers 5-15. HLF-1 were embedded in collagen gels as described for rat SCW synoviocytes (vida supra). […] The plates were cultured an additional 72 hrs, at which time MMP9 secreted into the conditioned media was bound to gelatin-sepharose and evaluated by Western blot analysis as described for the rat synoviocyte cultures (vida supra). mAb-51/82 detected three forms of MMP9 in HFL-1 cultures. […]
A second experiment was performed to determine if the 80 kD form was mature active MMP9 and to determine the potency of Compound α as an inhibitor of MMP9 maturation in this assay. […] In the absence of Compound α, pAb-1246 readily detected MMP9 with an electrophoretic mobility of approximately 80 kD. […]

[2] = target: T2, MMP9 (Rattus norvegicus, UniProt P50282); assay: Western blot of MMP9 forms in ankles of rats with SCW-induced arthritis; type: in vivo; details: day 26, mAb-L51/82
T2 construct: Pro and active MMP9 were abundantly present in ankles of SCW-induced vehicle-treated rats; from tissue; host or cells: tibia-tarsus joints (ankles) of female Lewis rats
T2 sequence (P50282 108-708): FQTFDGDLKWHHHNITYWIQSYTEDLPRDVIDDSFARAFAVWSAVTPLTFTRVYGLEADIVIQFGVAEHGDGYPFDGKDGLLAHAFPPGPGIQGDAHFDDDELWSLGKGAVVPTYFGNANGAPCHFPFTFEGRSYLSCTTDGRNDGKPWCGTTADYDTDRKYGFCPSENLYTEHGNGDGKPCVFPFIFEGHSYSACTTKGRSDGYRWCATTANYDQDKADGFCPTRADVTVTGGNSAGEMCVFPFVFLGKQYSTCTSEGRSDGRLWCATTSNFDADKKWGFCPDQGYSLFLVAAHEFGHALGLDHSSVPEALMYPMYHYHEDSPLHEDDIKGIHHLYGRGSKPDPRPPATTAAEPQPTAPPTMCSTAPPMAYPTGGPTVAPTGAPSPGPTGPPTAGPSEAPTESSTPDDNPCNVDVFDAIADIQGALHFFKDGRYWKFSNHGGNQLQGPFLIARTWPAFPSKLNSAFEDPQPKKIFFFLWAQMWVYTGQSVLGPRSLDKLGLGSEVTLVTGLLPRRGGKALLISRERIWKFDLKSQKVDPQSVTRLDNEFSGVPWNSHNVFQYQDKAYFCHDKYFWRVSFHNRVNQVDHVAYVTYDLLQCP
Description: Hind-limbs were skinned, severed just above the tibia-tarsus joint and below the metatarsals, and the tibia-tarsus joints (ankles) were weighed, snap frozen and pulverized on dry ice using a hammer and anvil. The pulverized tissue was suspended in 3 volumes (w:v) of ice-cold homogenization buffer containing 50 mM Tris pH 7.5, 150 mM NaCl, 5 mM EDTA, 1% Triton×100, 0.05% Brij 30, 10% dimethylsulfoxide and Complete EDTA-free Protease Inhibitor Cocktail (Roche Diagnostics). The suspended tissue was homogenized sequentially with a Kinematica AG Polytron and a Dounce homogenizer. Homogenates were centrifuged at 16,000×g for 10 min at 4° C. and the soluble fractions were saved. Dimethylsulfoxide was removed from a portion of each soluble fraction using PD MiniTrap™ G-25 desalting columns (GE Healthcare). Homogenates (0.25 mL), free of DMSO, were diluted with an equal volume of binding buffer (i.e., homogenization buffer without dimethylsufoxide) and adjusted to contain 50 μL of a 50% slurry of gelatin-conjugated sepharose. Following 2 hours of rotation at 4° C. the beads were washed twice in binding buffer and eluted in 100 μL 2×-reducing Laemmli buffer with heating to 95° C. for 5 minutes. […]

T1 sequence (P14780 20-707 limits assumed): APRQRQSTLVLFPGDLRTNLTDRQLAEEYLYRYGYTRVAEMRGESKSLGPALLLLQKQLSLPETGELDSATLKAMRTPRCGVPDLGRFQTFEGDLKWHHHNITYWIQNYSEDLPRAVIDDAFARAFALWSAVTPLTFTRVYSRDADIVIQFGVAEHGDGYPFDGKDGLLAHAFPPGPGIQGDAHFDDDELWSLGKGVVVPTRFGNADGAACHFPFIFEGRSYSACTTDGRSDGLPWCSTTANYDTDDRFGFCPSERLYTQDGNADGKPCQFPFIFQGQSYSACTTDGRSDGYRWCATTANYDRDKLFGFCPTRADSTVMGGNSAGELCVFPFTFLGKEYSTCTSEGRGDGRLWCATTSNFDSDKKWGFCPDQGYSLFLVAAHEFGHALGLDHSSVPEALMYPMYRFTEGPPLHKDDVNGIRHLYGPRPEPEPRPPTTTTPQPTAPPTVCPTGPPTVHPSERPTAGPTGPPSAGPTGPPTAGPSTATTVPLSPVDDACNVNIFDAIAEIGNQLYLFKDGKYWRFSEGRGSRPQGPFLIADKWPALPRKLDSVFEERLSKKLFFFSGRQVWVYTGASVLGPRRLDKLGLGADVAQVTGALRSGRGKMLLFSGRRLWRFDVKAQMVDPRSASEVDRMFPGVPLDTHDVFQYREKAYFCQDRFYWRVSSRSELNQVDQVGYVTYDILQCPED

Cc1nc(C)c(-c2csc(Nc3cc(S(N)(=O)=O)ccc3OC(C)C)n2)s1 [Compound α, 3-(2′,4′-Dimethyl-[4,5′]bithiazolyl-2-ylamino)-4-isopropoxy-benzenesulfonamide.HBr]
Signal Total [1]: 91346 INT*mm^2
abundance of proMMP9 in ankles [2]: did not reduce
